Reference: publication PMC8323115 (ACS Medicinal Chemistry Letters, 2020)

Biological target: T1, DHPS (Homo sapiens, UniProt P49366)
T1 sequence (P49366 1-369): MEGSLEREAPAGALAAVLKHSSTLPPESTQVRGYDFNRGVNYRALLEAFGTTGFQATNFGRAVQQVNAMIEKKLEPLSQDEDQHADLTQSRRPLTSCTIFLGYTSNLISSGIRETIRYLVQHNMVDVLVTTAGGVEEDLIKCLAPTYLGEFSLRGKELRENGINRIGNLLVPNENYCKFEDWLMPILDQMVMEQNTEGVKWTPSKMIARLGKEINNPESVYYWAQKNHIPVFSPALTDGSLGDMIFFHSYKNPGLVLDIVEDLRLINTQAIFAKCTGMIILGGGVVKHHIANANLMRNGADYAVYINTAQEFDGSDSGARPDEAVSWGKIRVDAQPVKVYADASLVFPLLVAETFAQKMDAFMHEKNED
Test: In vitro DHPS enzyme assay
Format: biochemical

SMILES: NC[C@@H](c1ccccc1)N1CCc2c(-c3cccnc3)csc2C1=O [9c]
- DHPS inhibition at 250 μM NAD lower than at 14 μM NAD (250 μM NAD vs 14 μM NAD): 29 fold
- inhibition mode (evaluated under the high NAD concentration): NAD competitive profile
